Reference: ChEMBL document CHEMBL1649457, “Antibiotic susceptibility of Waddlia chondrophila in Acanthamoeba castellanii amoebae” (2009)
Values after ≈ are worked out from the molar mass of the structure shown.

Experiments:
[1] = tested on: Parachlamydia acanthamoebae; experiment: Antimicrobial activity against Parachlamydia acanthamoebae infected in Acanthamoeba castellanii amoeba cells; assay type: functional
[2] = Antimicrobial activity against Waddlia chondrophila ATCC VR-1470 infected in Vero cells; assay type: functional, Waddlia chondrophila WSU 86-1044
Chlamydia pneumoniae = experiment: Antimicrobial activity against Chlamydophila pneumoniae infected in Vero cells; assay type: functional
[3] = Antimicrobial activity against Waddlia chondrophila ATCC VR-1470 infected in Acanthamoeba castellanii amoeba cells; assay type: functional, Waddlia chondrophila WSU 86-1044
[4] = Antimicrobial activity against Waddlia chondrophila 2032/99 infected in Acanthamoeba castellanii amoeba cells; assay type: functional
Chlamydia trachomatis = experiment: Antimicrobial activity against Chlamydia trachomatis infected in Vero cells; assay type: functional
Chlamydophila psittaci = experiment: Antimicrobial activity against Chlamydophila psittaci infected in Vero cells; assay type: functional; conditions: Chlamydia psittaci

SMILES | MIC [1] [µg/mL] | MIC [2] [µg/mL] | MIC (Chlamydia pneumoniae) [µg/mL] | MIC [3] [µg/mL] | MIC [4] [µg/mL] | MIC (Chlamydia trachomatis) [µg/mL] | MIC (Chlamydophila psittaci) [µg/mL]
CC1(C)S[C@@H]2[C@H](NC(=O)[C@H](N)c3ccc(O)cc3)C(=O)N2[C@H]1C(=O)O [AMOXICILLIN] | > 32 |  |  |  |  |  | 
CC1(C)S[C@@H]2[C@H](NC(=O)[C@H](N)c3ccccc3)C(=O)N2[C@H]1C(=O)O [AMPICILLIN] |  | > 32 | > 100 | > 32 |  |  | 
CC[C@H]1OC(=O)[C@H](C)[C@@H](O[C@H]2C[C@@](C)(OC)[C@@H](O)[C@H](C)O2)[C@H](C)[C@@H](O[C@@H]2O[C@H](C)C[C@H](N(C)C)[C@H]2O)[C@](C)(O)C[C@@H](C)CN(C)[C@H](C)[C@@H](O)[C@]1(C)O [AZITHROMYCIN] |  | 0.25 (≈ 0.334 µM) | 0.06 (≈ 0.0801 µM) | 0.06 (≈ 0.0801 µM) | 0.06 (≈ 0.0801 µM) | 0.125 (≈ 0.167 µM) | 0.125 (≈ 0.167 µM)
CO/N=C(\C(=O)N[C@@H]1C(=O)N2C(C(=O)O)=C(CSc3nc(=O)c(O)nn3C)CS[C@H]12)c1csc(N)n1 [CEFTRIAXONE] | > 32 | > 32 |  | > 32 |  | > 32 | 
O=C(O)c1cn(C2CC2)c2cc(N3CCNCC3)c(F)cc2c1=O [CIPROFLOXACIN] | > 16 | > 16 | 1 (≈ 3.02 µM) | > 16 |  | 0.5 (≈ 1.51 µM) | 1 (≈ 3.02 µM)
C[C@H]1c2cccc(O)c2C(=O)C2=C(O)[C@]3(O)C(=O)C(C(N)=O)=C(O)[C@@H](N(C)C)[C@@H]3[C@@H](O)[C@@H]21.O [DOXYCYCLINE] | 0.5 | 0.25 | 0.03 | 4 | 1 | 0.03 | 0.03
CC1COc2c(N3CCN(C)CC3)c(F)cc3c(=O)c(C(=O)O)cn1c23 (stereo not drawn) [OFLOXACIN] | > 16 | > 16 | 0.5 (≈ 1.38 µM) | > 16 |  | 0.5 (≈ 1.38 µM) | 0.5 (≈ 1.38 µM)
